Patent US11512079B2, “Heterocycle substituted pyridine derivative antifungal agents” (Amplyx Pharmaceuticals, Inc., priority 2017, dated 2022)
Values after ≈ are worked out from the molar mass of the structure shown. Counter-ions that a name gives are not always drawn.

How the values were obtained:
Assay type in all cases: cell-based
[1] = test system: Rhizomucor pusillus 46342; assay: In vitro antifungal assay (Example IX), microdilution broth, MEC; conditions: minimum effective concentration (shortening of hyphae), 35° C., 40-48 h, RPMI1640
Method: (§1) Measurement of antifungal activity: […] Candida albicans 90028, Aspergillus fumigatus MYA3626, Rhizomucor pusillus 46342 and Cryptococcus neoformans […] strains were obtained from American Type Culture Collection (ATCC). […] (A. fumigatus) and 35° C. (R. pusillus). Water containing 1% Tween was directly added to the agar plate and gently agitated to wet and remove the Aspergillus conidia. For R. pusillus, water was added to the surface and gently massaged to wet and remove the spores. For both species, the conidia or spores and mycelial fragments were collected, followed by removal of mycelium, conidiophores and large clumps of conidia/spores. The resulting spore suspension was counted and diluted into RPMI1640 medium to adjust to a final suspension of 1-2×10^4 spores/mL. The suspension was used in the MEC measurement as described below. […] The compounds were weighed and DMSO was added to prepare a 10 mg/mL stock. The solutions were mixed by vortexing and sonication at 37° C. for 5-10 mins. The resulting solutions were sterile filtered using a PTFE filter, and aliquoted (12 μL or as needed) and stored at -20° C. Intermediate compound dilutions were prepared in sterile polypropylene tubes in 100% DMSO. […] This was validated by thorough mixing and reading at 600 nm on a microplate reader. The minimum concentration that led to shortening of hyphae as compared to hyphal growth in DMSO control wells was determined as the minimum effective concentration (MEC) for A. fumigatus and R. pusillus (as read for echinocandins). The use of the MIC and MEC endpoints against yeasts and molds, respectively has been described by Pfaller M A, Duncanson F, Messer S A, Moet G J, Jones […]. Antimicrob Agents Chemother. 2011. 55(11):5155-8. In vitro activity of a novel broad-spectrum antifungal, […], tested against Aspergillus spp. determined by CLSI and EUCAST broth microdilution methods. Results are shown in Table 2, and the letters indicate the following ranges in μg/mL: […]

[2] = test system: Aspergillus fumigatus MYA3626; assay: as above; conditions: minimum effective concentration (shortening of hyphae), 35° C., 40-48 h, RPMI1640
Method: as §1

[3] = test system: Candida albicans 90028; assay: In vitro antifungal assay (Example IX), microdilution broth, MIC; conditions: minimum inhibitory concentration (≥50% inhibition), 35° C., 40-48 h, RPMI1640
Method: Measurement of antifungal activity: Antifungal activity of the compounds was evaluated in a microdilution broth assay as per Clinical and Laboratory Standard Institute methodology for yeast (for Candida and Cryptococcus) (1) and molds (for Aspergillus and Rhizomucor) (2). Candida albicans 90028, Aspergillus fumigatus MYA3626, Rhizomucor pusillus 46342 and Cryptococcus neoformans H99 strains were obtained from American Type Culture Collection (ATCC).
Preparation of Fungal Suspension. C. albicans 90028 and C. neoformans H99 strains were streaked from frozen stocks at −80° C. onto Sabouraud Dextrose Agar (SDA) plates. These were allowed to grow for 24 h (C. albicans) and 48 h (C. neoformans) at 35° C. before using them in the assay. 5-6 individual colonies were picked and diluted into sterile water to obtain a fungal suspension. The cell density of the suspension was determined and the culture diluted with RPMI1640 medium to obtain a fungal suspension of 2.5×10^3 cells/mL. The suspension was used in the MIC measurement as described below.
Preparation of Compound Stocks and Intermediate Dilutions: The compounds were weighed and DMSO was added to prepare a 10 mg/mL stock. The solutions were mixed by vortexing and sonication at 37° C. for 5-10 mins. The resulting solutions were sterile filtered using a PTFE filter, and aliquoted (12 μL or as needed) and stored at −20° C. Intermediate compound dilutions were prepared in sterile polypropylene tubes in 100% DMSO. The compound stock solution was first diluted in DMSO to obtain a concentration of […] to 0.19 μg/mL.
MIC/MEC Measurement: 99 μL 1 of the fungal suspension in RPMI1640 prepared as above was added to each well of a 96-well round bottom assay plate. 1 μL of the intermediate compound dilutions (200-0.19 μg/mL) were added to wells of the plate. This led to a 100-fold dilution of the intermediate dilutions resulting in a final compound concentration of 2-0.0019 μg/mL in the plate. 1 μL of DMSO was added to “No drug” control wells. The solutions were mixed by shaking on a plate shaker for 10 mins and plates incubated at 35° C. for 40-48 h (C. albicans, A. fumigatus, R. pusillus) and 72 h (Cryptococcus). […] This was validated by thorough mixing and reading at 600 nm on a microplate reader. The minimum concentration that led to shortening of hyphae as compared to hyphal growth in DMSO control wells was determined as the minimum effective concentration (MEC) for A. fumigatus and R. pusillus (as read for echinocandins). The use of the MIC and MEC endpoints against yeasts and molds, respectively has been described by Pfaller M A, Duncanson F, Messer S A, Moet G J, Jones R N, Castanheira M. Antimicrob Agents Chemother. 2011. 55(11):5155-8. In vitro activity of a novel broad-spectrum antifungal, E1210, tested against Aspergillus spp. determined by CLSI and EUCAST broth microdilution methods. Results are shown in Table 2, and the letters indicate the following ranges in μg/mL: […]

MIC [3] [mg/L]	SMILES	minimal effective concentration [1] [µg/mL]	minimal effective concentration [2] [µg/mL]
0.01 to 0.1 (≈ 0.0255 to 0.255 µM)	Nc1ncccc1-c1cc(Cc2ccc(OCc3cccc(Cl)c3)nc2)no1 [compound 85, 3-(3-((6-((3-chlorobenzyl)oxy)pyridin-3-yl)methyl)isoxazol-5-yl)pyridin-2-amine]	0.1 to 1	0.01 to 0.1
0.01 to 0.1 (≈ 0.0266 to 0.266 µM)	Nc1ncccc1-c1cc(Cc2ccnc(OCc3cccc(F)c3)c2)no1 [compound 86, 3-(3-((2-((3-fluorobenzyl)oxy)pyridin-4-yl)methyl)isoxazol-5-yl)pyridin-2-amine]	> 1	0.01 to 0.1
0.1 to 1 (≈ 0.243 to 2.43 µM)	Nc1ncccc1-c1cc(Cc2ccc(OCc3cc(F)cc(Cl)c3)nc2)no1 [compound 87, 3-(3-((6-((3-chloro-5-fluorobenzyl)oxy)pyridin-3-yl)methyl)isoxazol-5-yl)pyridin-2-amine]	> 1	0.01 to 0.1
0.1 to 1 (≈ 0.29 to 2.9 µM)	Nc1ncccc1-c1cc(Cc2ccnc(Oc3ccccc3)c2)no1 [compound 88]	> 1	0.1 to 1
> 1	Nc1ncccc1-c1cc(Cc2cccc(OCc3cccc(F)c3)n2)no1 [compound 89, 3-(3-((6-((3-fluorobenzyl)oxy)pyridin-2-yl)methyl)isoxazol-5-yl)pyridin-2-amine]	> 1	> 1
0.1 to 1 (≈ 0.266 to 2.66 µM)	Nc1ncccc1-c1cc(Cc2cccc(OCc3ccccc3F)n2)no1 [compound 90, 3-(3-((6-((2-fluorobenzyl)oxy)pyridin-2-yl)methyl)isoxazol-5-yl)pyridin-2-amine]	> 1	> 1
> 1	Nc1ncccc1-c1cc(Cc2ccc(CNCc3ccn[nH]3)cc2)no1 [compound 93, 3-(3-(4-((((1H-pyrazol-5-yl)methyl)amino)methyl)benzyl)isoxazol-5-yl)pyridin-2-amine]	> 1	> 1
> 1	N#CCNCc1ccc(Cc2cc(-c3cccnc3N)on2)cc1 [compound 94, 2-((4-((5-(2-aminopyridin-3-yl)isoxazol-3-yl)methyl)benzyl)amino)acetonitrile]	> 1	> 1
> 1	Nc1ncccc1-c1cc(Cc2ccc(CNCC3CCOCC3)cc2)no1 [compound 95, 3-(3-(4-((((tetrahydro-2H-pyran-4-yl)methyl)amino)methyl)benzyl)isoxazol-5-yl)pyridin-2-amine]	> 1	> 1
> 1	Nc1ncccc1-c1cc(Cc2ccc(CNC3CCCCNC3=O)cc2)no1 (stereo not drawn) [compound 96, 3-((4-((5-(2-aminopyridin-3-yl)isoxazol-3-yl)methyl)benzyl)amino)azepan-2-one]	> 1	> 1
> 1	C=Cc1ccc(Cc2cc(-c3cccnc3N)on2)cc1 [compound 97, 3-(3-(4-Vinylbenzyl)isoxazol-5-yl)pyridin-2-amine]	> 1	0.1 to 1
0.1 to 1	Nc1ncccc1-c1cc(Cc2ccc(CCSCCOC=O)cc2)no1 [compound 98, 2-((4-((5-(2-aminopyridin-3-yl)isoxazol-3-yl)methyl)phenethyl)thio)ethyl formate]	> 1	0.1 to 1
> 1	Nc1ncccc1-c1cc(Cc2ccc(Cn3cc(CO)cn3)cc2)no1 [compound 102, (1-(4-((5-(2-aminopyridin-3-yl)isoxazol-3-yl)methyl)benzyl)-1H-pyrazol-4-yl)methanol]	> 1	> 1
0.1 to 1 (≈ 0.25 to 2.5 µM)	CCCc1cccc(OCc2ccc(Cc3cc(-c4cccnc4N)on3)cc2)c1 [compound 103, 3-(3-(4-((3-propylphenoxy)methyl)benzyl)isoxazol-5-yl)pyridin-2-amine]	> 1	0.1 to 1
> 1	COc1ccc(COc2ccc(Cc3cc(-c4cccnc4N)on3)cc2)cc1 [compound 109, 3-(3-(4-((4-methoxybenzyl)oxy)benzyl)isoxazol-5-yl)pyridin-2-amine]	> 1	> 1
> 1	N#Cc1ccc(COc2ccc(Cc3cc(-c4cccnc4N)on3)cc2)cc1 [compound 113, 4-((4-((5-(2-aminopyridin-3-yl)isoxazol-3-yl)methyl)phenoxy)methyl)benzonitrile]	> 1	0.1 to 1
> 1	Nc1ncccc1-c1cc(Cc2ccc(OCc3ccc(F)nc3)cc2)no1 [compound 116, 3-(3-(4-((6-fluoropyridin-3-yl)methoxy)benzyl)isoxazol-5-yl)pyridin-2-amine]	> 1	0.01 to 0.1
> 1	Nc1ncccc1-c1cc(Cc2ccc(Oc3c[n+]([O-])ccn3)cc2)no1 [compound 119, 3-(4-((5-(2-aminopyridin-3-yl)isoxazol-3-yl)methyl)phenoxy)pyrazine 1-oxide]	> 1	> 1
> 1	Nc1ncccc1-c1cc(Cc2ccc(Cn3ccccc3=O)cc2)no1 [compound 126, 1-(4-((5-(2-aminopyridin-3-yl)isoxazol-3-yl)methyl)benzyl)pyridin-2(1H)-one]	> 1	> 1
> 1	Nc1ncccc1-c1cc(Cc2ccc(OCc3ccccc3C(F)(F)F)nc2)no1 [compound 128, 3-(3-((6-((2-(trifluoromethyl)benzyl)oxy)pyridin-3-yl)methyl)isoxazol-5-yl)pyridin-2-amine]	> 1	0.1 to 1
> 1	Nc1ncccc1-c1cc(Cc2ccc(OC3CCCc4cccnc43)nc2)no1 (stereo not drawn) [compound 129, 3-(3-((6-((5,6,7,8-tetrahydroquinolin-8-yl)oxy)pyridin-3-yl)methyl)isoxazol-5-yl)pyridin-2-amine]	> 1	> 1
0.1 to 1 (≈ 0.264 to 2.64 µM)	Nc1ccc(-c2cc(Cc3ccc(OCc4nccs4)cc3)no2)c(N)n1 [compound 133, 3-(3-(4-(thiazol-2-ylmethoxy)benzyl)isoxazol-5-yl)pyridine-2,6-diamine]	0.1 to 1	0.1 to 1
